Data: paper PMC4473678, “Swedish mutant APP-based BACE1 binding site peptide reduces APP β-cleavage and cerebral Aβ levels in Alzheimer’s mice” (Scientific Reports, 2015)
Entries after “also recorded” stand apart in the source; their conditions may differ.

Assays:
brain of 5XFAD mice = test: BBB penetration after i.p. administration (brain section confocal imaging)
Method: 5XFAD mice at 2 months of age (n = 5, female) were treated intraperitoneally with biotin-labeled TAT-APPsweBBP or APPsweBBP (100 nmol/kg) daily for 5 days and then euthanized 4 h after the last injection. Brain tissues were removed, sectioned and stained with anti-BACE1 and anti-biotin antibodies.
Fixed cell cultures and brain sections were stained with indicated antibodies and then treated with donkey anti-mouse IgG conjugated with Alexa Fluor 488 (1:200) or goat anti-rabbit IgG conjugated with Alexa Fluor 594 (1:200; Invitrogen, Carlsbad, CA). The slides were then washed, mounted with DAPI medium (Vector Laboratories, Burlingame, CA) and visualized with an Olympus FV1000 confocal microscope (Tokyo, Japan).

[1] = test system: cortex and hippocampus of 5XFAD mice; test: Extracellular and intracellular peptide levels in brain (WB); assay type: in vivo, mouse; conditions: i.p., *P < 0.05, **P < 0.01, listed as TAT-APPsweBBP
Method: For specific extraction of extracellular versus intracellular proteins, hemibrains were harvested and placed in 500 μl of solution containing 50 mM Tris-HCl, pH 7.6, 0.01% NP-40, 150 mM NaCl, 2 mM EDTA, 0.1% SDS, 1 mM phenylmethylsulfonyl fluoride, and protease inhibitor cocktail (Sigma) as previously describe. Soluble, extracellular proteins were collected from mechanically homogenized lysates after centrifugation for 5 min at 3000 rpm. Cytoplasmic proteins were extracted from cell pellets mechanically dissociated with a micropipettor in 500 μl of TNT buffer (50 mM Tris-HCl, pH 7.6, 150 mM NaCl, and 0.1% Triton X-100) after centrifugation for 90 min at 13,000 rpm. Insoluble material was incubated with 20 μl of 70% formic acid, mechanically dissociated with a micropipette, gently agitated for 1 h, and buffered with 380 μl of 1 M Tris-HCl, pH 8.0. Samples were centrifuged for 90 min at 13,000 rpm, and supernatants were collected for analysis.
WB analysis was performed as previously described. Briefly, the proteins from the various cell-free suspensions, cell lysates and brain homogenates were electrophoretically separated using 10% bicine/tris gel (8 M urea) for proteins less than 5 kD or 10% tricine/tris gels for larger proteins. […]

[2] = test system: recombinant BACE1 protein; test: WB of BACE1-mediated cleavage of biotin-labeled peptide, cell-free; assay type: biochemical; conditions: 10 μg biotin-labeled TAT-APPsweBBP with 10 μL recombinant BACE1 (1.0 U/mL), 4 h, 37 °C
Method: In order to confirm that APPsweBBP containing the β-cleavage site could bind to and be consequently proteolyzed by BACE1, 10 μg of biotin-labeled TAT-APPsweBBP was incubated with or without 10 μL of recombinant BACE1 protein (1.0 U/mL) in BACE1 reaction buffer for 4 h at 37 °C and then subjected to WB analysis as described previously. In addition, we performed immunoprecipitation (IP) and WB analyses of this mixture with anti-BACE1 and anti-biotin antibodies to confirm that TAT-APPsweBBP, but not TAT, specifically binds to BACE1.

## YGRKKRRQRRREISEVNLDAEFR [APPsweBBP conjugated with the membrane fusion fragment of HIV-1 Tat protein]
Brain of 5XFAD mice; 5XFAD mice, 2 months, n = 5, female, biotin-labeled peptide 100 nmol/kg i.p. daily 5 days, 4 h after last injection
  association with BACE1 in brain: more highly associates with BACE1 compared to APPsweBBP
Brain of 5XFAD mice; 5XFAD mice, 2 months, n = 5, female, biotin-labeled peptide 100 nmol/kg i.p. daily 5 days, 4 h after last injection, confocal images, listed as TAT-APPsweBBP
  BBB penetration / brain distribution: highly penetrated the BBB and was detectable in both the cortical and hippocampal regions; also recorded: more permeable across the BBB; also recorded: greater distribution of TAT-APPsweBBP than APPsweBBP into cortical and hippocampal regions
Brain of 5XFAD mice; peripheral injection, Fig. S4
  BBB penetration (Fig. S4 legend): freely enters brain microvascular endothelial cells
[1]
  intracellular versus extracellular distribution in brain: higher intracellular TAT-APPsweBBP distribution; also recorded: prefers to enter into cytoplasm of brain cells
[2]
  cleavage by BACE1: is cleaved by BACE1; also recorded: can also be cleaved
